Data from patent US20080318970A1, “Treatment of Infectious Diseases” (priority 2004, published 2008).

Test system: HIV-1 strain HTLV-IIIB
Experiment: Inhibition of HIV-1 replication in MT4 cells (MTT assay)
Format: cell-based
Description: Each experiment was repeated in tripleduplicate. MIC values represent the mean values of two separate experiments.
The HIV-1 strain HTLV-IIIB were propagated in H9 cells at 37° C., 5% CO2 using RPMI 1640 with 10% heat-inactivated foetal calf serum (FCS) and antibiotics (growth medium). Culture supernatant was filtered ([…]), aliquotted, and stored at −80° C. until use. The HIV-1 strain was obtained from NIH AIDS Research and Reference Program.
Compounds were examined for possible antiviral activity against strain 111B of HIV-1 using MT4 cells as target cells. MT4 cells were incubated with virus (0.005 MOI) and growth medium containing the test dilutions of compound(s) for six days in parallel with virus-infected and uninfected control cultures without compound added. Expression of HIV in the cultures was indirectly quantified using the MTT assay as previously described. Compounds mediating less than 30% reduction of HIV expression were considered without biological activity. Compounds were tested in parallel for cytotoxic effect in uninfected MT4 cultures containing the test dilutions of compound as described above. Cultures for test of both antiviral activity and cytotoxic effect were set up in tripleduplicates, […] per culture in micro titre plates.
The 50% inhibitory concentration was determined by interpolation from the plots of percent inhibition versus concentration of compound.
EC50 is defined as the effective concentration that inhibits 50% of viral production, 50% of viral infectivity, or 50% of the virus-induced cytopathic effect.

In the case of `OCCN1CCN(CC/C=C2\c3ccccc3Sc3ccc(Cl)cc32)CC1` [trans-clopenthixol], the “antiviral effect (in words)” value (alone, at the concentrations used) is reported as “no antiviral or cytotoxic effect” and the EC50 (compound alone, MT4 cells, six days) is reported as over 3000 nM.
